Values quoted from earlier work as cited in patent publication US11470860B2, “Animal feeds containing specific glycolipids” (PATHWAY INTERMEDIATES LIMITED, priority 2016, dated 2022).

Conditions: for stability versus pH: aqueous medium

SMILES: CC1CCCCCC/C=C\CCCCCCCC(=O)OC2C(CO)OC(OC3C(O1)OC(CO)C(O)C3O)C(O)C2O (stereo not drawn) [lactonised sophorolipids]
- stability versus pH: stable across a wider pH range

SMILES: CC(CCCCCC/C=C\CCCCCCCC(=O)O)OC1OC(CO)C(O)C(O)C1OC1OC(CO)C(O)C(O)C1O (stereo not drawn) [Acidic sophorolipids]
- stability versus pH: instability at pH higher than 7.0
- solubility in aqueous medium (dependence on pH): not readily soluble in aqueous medium at acidic pH but become soluble at higher pH
